In US20230022157A1 (Achillion Pharmaceuticals, Inc., priority 2018, published 2023):
Where a name gives a salt, the structure may show the parent alone.

molecular target: T1, Human Factor D (Homo sapiens, UniProt P00746); assay: Human Factor D Assay; type: biochemical; conditions: Human Factor D 80 nM, substrate Z-L-Lys-SBzl, assay of Example 3; read-out: IC50 (Stars)
T1 construct: purified from human serum; purchased Complement Technology, Inc; host or cells: human serum (natural protein, not recombinant)
T1 sequence (P00746 26-253): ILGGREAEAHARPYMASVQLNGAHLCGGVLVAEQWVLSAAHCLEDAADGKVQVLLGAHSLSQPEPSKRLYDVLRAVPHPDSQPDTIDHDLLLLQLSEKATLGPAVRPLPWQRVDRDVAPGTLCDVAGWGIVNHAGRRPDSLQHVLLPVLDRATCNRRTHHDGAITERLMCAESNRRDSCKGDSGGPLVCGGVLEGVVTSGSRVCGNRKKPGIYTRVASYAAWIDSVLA
Procedure: Human Factor D (purified from human serum, Complement Technology, Inc.) at 80 nM final concentration is incubated with test compound at various concentrations for 5 min at room temperature in 50 mM Tris, 1M NaCl, pH 7.5. A synthetic substrate Z-L-Lys-SBzl and DTNB (Ellman's reagent) are added to final concentrations of 100 μM each. […] IC50 values are calculated by nonlinear regression of complement Factor D reaction rates as a function of test compound concentration.

| IC50 [nM] | Compound |
| --- | --- |
| 1000 to 10000 | CC(=O)c1nn(CC(=O)N2C[C@H](F)C[C@H]2C(=O)Oc2cccc(Br)n2)c2ccc(-c3cnc(C)nc3)cc12 [Compound 37, (2S,4R)-6-Bromopyridin-2-yl 1-(2-(3-acetyl-5-(2-methylpyrimidin-5-yl)-1H-indazol-1-yl)acetyl)-4-fluoropyrrolidine-2-carboxylate] |
| < 1000 | CC(=O)c1nn(CC(=O)N2C[C@H](F)C[C@H]2C(=O)Nc2cccc(Br)n2)c2ccc(-c3ccc(C)nc3)cc12 [Compound 33] |

same assay, conditions: Human Factor D 80 nM, substrate Z-L-Lys-SBzl; Table 2; read-out: IC50 (Stars)

| Compound | IC50 [nM] |
| --- | --- |
| Cc1ncc(-c2cc3c(C(N)=O)nn(CC(=O)N4C(C(=O)Nc5nc(Br)ccc5Cl)CC5(C)CC45)c3c(C)n2)cn1 (stereo not drawn) [Compound 91, 1-{2-[3-(6-Bromo-3-chloro-pyridin-2-ylcarbamoyl)-5-methyl-2-aza-bicyclo[3.1.0]hex-2-yl]-2-oxo-ethyl}-7-methyl-5-(2-methyl-pyrimidin-5-yl)-1H-pyrazolo[3,4-c]pyridine-3-carboxylic acid amide] | < 1000 |
| CCCCC(NC(=O)[C@@H]1C[C@@]2(C)C[C@H]2N1C(=O)Cn1nc(C(C)=O)c2cc(-c3cnc(C)nc3)cc(C)c21)C(F)(F)F (stereo partly drawn) [Compound 88, (1R,3S,5R)-2-{2-[3-acetyl-7-methyl-5-(2-methylpyrimidin-5-yl)indazol-1-yl]acetyl}-5-methyl-N-(1,1,1-trifluorohexan-2-yl)-2-azabicyclo[3.1.0]hexane-3-carboxamide] | < 1000 |
| CC(=O)c1nn(CC(=O)N2[C@H](C(=O)N[C@@H](c3ccccc3)C(F)(F)F)C[C@@]3(C)C[C@@H]23)c2c(C)cc(-c3cnc(C)nc3)cc12 [Compound 85, (1R,3S,5R)-2-{2-[3-acetyl-7-methyl-5-(2-methylpyrimidin-5-yl)indazol-1-yl]acetyl}-5-methyl-N-[(1S)-2,2,2-trifluoro-1-phenylethyl]-2-azabicyclo[3.1.0]hexane-3-carboxamide] | < 1000 |
| CC(=O)c1nn(CC(=O)N2C[C@@H](C(C)(C)N)C[C@H]2C(=O)Nc2nc(C(F)(F)F)ccc2C)c2c(C)cc(-c3cnc(C)nc3)cc12 [Compound 56, (2S,4S)-1-(2-(3-acetyl-7-methyl-5-(2-methylpyrimidin-5-yl)-1H-indazol-1-yl)acetyl)-4-(2-aminopropan-2-yl)-N-(3-methyl-6-(trifluoromethyl)pyridin-2-yl)pyrrolidine-2-carboxamide hydrochloride] | < 1000 |
| CC(=O)c1nn(CC(=S)N2C[C@H](F)C[C@H]2C(=O)Nc2cccc(Br)n2)c2ccc(-c3cnc(C)nc3)cc12 [Compound 110, 1-{2-[3-Acetyl-5-(2-methyl-pyrimidin-5-yl)-indazol-1-yl]-thioacetyl}-4-fluoro-pyrrolidine-2-carboxylic acid (6-bromo-pyridin-2-yl)-amide] | 1000 to 10000 |
| CC(=O)c1nn(CC(=O)N2[C@H](C(=O)Nc3cc(C)cc(Br)n3)C[C@@]3(C)C[C@@H]23)c2c(C)cc(-c3cnc(CO)nc3)cc12 [Compound 93, (1R,3S,5R)-2-(2-(3-acetyl-5-(2-(hydroxymethyl)pyrimidin-5-yl)-7-methyl-1H-indazol-1-yl)acetyl)-N-(6-bromo-4-methylpyridin-2-yl)-5-methyl-2-azabicyclo[3.1.0]hexane-3-carboxamide] | < 1000 |

More lines, now with the values ahead:

| IC50 [nM] | Compound |
| --- | --- |
| < 1000 | CC(=O)c1cn(CC(=O)N2[C@H](C(=O)Nc3nc(OC(F)(F)F)ccc3C)C[C@@]3(C)C[C@@H]23)c2c(C)cc(-c3cnc4cc(C)nn4c3)cc12 [Compound 206, (1R,3S,5R)-2-(2-(3-acetyl-7-methyl-5-(2-methylpyrazolo[1,5-a]pyrimidin-6-yl)-1H-indol-1-yl)acetyl)-5-methyl-N-(3-methyl-6-(trifluoromethoxy)pyridin-2-yl)-2-azabicyclo[3.1.0]hexane-3-carboxamide] |
| < 1000 | CC(=O)c1nn(CC(=O)N2[C@H](C(=O)Nc3nc(C(F)(F)F)ccc3C)C[C@@]3(C)C[C@@H]23)c2c(CF)cc(-c3cnc(C)nc3)cc12 [Compound 237, (1R,3S,5R)-2-(2-(3-acetyl-7-(fluoromethyl)-5-(2-methylpyrimidin-5-yl)-1H-indazol-1-yl)acetyl)-5-methyl-N-(3-methyl-6-(trifluoromethyl)pyridin-2-yl)-2-azabicyclo[3.1.0]hexane-3-carboxamide] |
| < 1000 | CC(=O)c1nn(CC(=O)N2[C@H](C(=O)NC(C)Cc3ccsc3)C[C@@]3(C)C[C@@H]23)c2c(C)cc(-c3cnc(C)nc3)cc12 (stereo partly drawn) [Compound 183, (1R,3S,5R)-2-{2-[3-acetyl-7-methyl-5-(2-methylpyrimidin-5-yl)indazol-1-yl]acetyl}-5-methyl-N-[1-(thiophen-3-yl)propan-2-yl]-2-azabicyclo[3.1.0]hexane-3-carboxamide] |
| < 1000 | CC(=O)c1nn(CC(=O)N2[C@H](C(=O)NC(C)Cc3cccs3)C[C@@]3(C)C[C@@H]23)c2c(C)cc(-c3cnc(C)nc3)cc12 (stereo partly drawn) [Compound 182, (1R,3S,5R)-2-{2-[3-acetyl-7-methyl-5-(2-methylpyrimidin-5-yl)indazol-1-yl]acetyl}-5-methyl-N-[1-(thiophen-2-yl)propan-2-yl]-2-azabicyclo[3.1.0]hexane-3-carboxamide] |
| < 1000 | CCC(Cc1ccccc1)NC(=O)[C@@H]1C[C@@]2(C)C[C@H]2N1C(=O)Cn1nc(C(C)=O)c2cc(-c3cnc(C)nc3)cc(C)c21 (stereo partly drawn) [Compound 173, (1R,3S,5R)-2-{2-[3-acetyl-7-methyl-5-(2-methylpyrimidin-5-yl)indazol-1-yl]acetyl}-5-methyl-N-(1-phenylbutan-2-yl)-2-azabicyclo[3.1.0]hexane-3-carboxamide] |
| < 1000 | CC(=O)c1cn(CC(=O)N2[C@H]3CC[C@H](C3)[C@H]2C(=O)Nc2nc(Br)ccc2C)c2c(C)cc(-c3cnc(C)nc3)cc12 [Compound 178, (1S,3S,4R)-2-(2-(3-acetyl-7-methyl-5-(2-methylpyrimidin-5-yl)-1H-indol-1-yl)acetyl)-N-(6-bromo-3-methylpyridin-2-yl)-2-azabicyclo[2.2.1]heptane-3-carboxamide] |
| < 1000 | COCc1cc(-c2cnc(C)nc2)cc2c(C(C)=O)cn(CC(=O)N3[C@H](C(=O)Nc4nc(C(F)(F)F)ccc4C)C[C@@]4(C)C[C@@H]34)c12 [Compound 238, (1R,3S,5R)-2-(2-(3-acetyl-7-(methoxymethyl)5-(2-methylpyrimidin-5-yl)-1H-indol-1-yl)acetyl)-5-methyl-N-(3-methyl-6-(trifluoromethyl)pyridin-2-yl)-2-azabicyclo[3.1.0]hexane-3-carboxamide] |
| < 1000 | CC(=O)c1cn(CC(=O)N2[C@H](C(=O)Nc3nc(Br)c(F)cc3C)C[C@@]3(C)C[C@@H]23)c2c(C)cc(-c3cnc(C(C)O)nc3)cc12 (stereo partly drawn) [Compound 158] |
| < 1000 | CC(=O)c1nn(CC(=O)N2[C@H](C(=O)Nc3nc(Br)ccc3C)C[C@@]3(C)C[C@@H]23)c2cc(CF)c(Nc3cnc(C)nc3)cc12 [Compound 185, (1R,3S,5R)-2-(2-(3-acetyl-6-(fluoromethyl)-5-((2-methylpyrimidin-5-yl)amino)-1H-indazol-1-yl)acetyl)-N-(6-bromo-3-methylpyridin-2-yl)-5-methyl-2-azabicyclo[3.1.0]hexane-3-carboxamide] |
| < 1000 | CC(=O)c1nn(CC(=O)N2C[C@H](F)C[C@H]2C(=O)Nc2cccc(Br)n2)c2c(C)cc(-c3cnc(C(C)O)nc3)cc12 (stereo partly drawn) [Compound 179, (2S,4R)-1-(2-(3-acetyl-5-(2-(1-hydroxyethyl)pyrimidin-5-yl)-7-methyl-1H-indazol-1-yl)acetyl)-N-(6-bromopyridin-2-yl)-4-fluoropyrrolidine-2-carboxamide] |
